Measurements published in patent publication EP4741383A1, “COMPOUND AND USE THEREOF AS ANTI-CANCER DRUG” (Tyligand Bioscience (Shanghai) Limited, priority 2023, dated 2025).

Tests used:
A2780 = assay: CellTiter-Glo cell proliferation inhibition, A2780; format: cell-based; conditions: A2780 (human ovarian cancer cell line), 72 hours; read-out: Example IC50 (µM) A2780
From the text: (§1) This experiment used the CellTiter-Glo® Luminescent Cell Viability Assay kit from Promega to evaluate the inhibitory activity of the disclosed compounds on the proliferation of the following cell lines: 4T1 (mouse breast cancer cell line), A20 (mouse B-cell lymphoma cell line), A2780 (human ovarian cancer cell line), AsPC-1 (pancreatic cancer cell line), B16F10 (mouse melanoma cell line), BT549 (human breast cancer cell line), CT26 (mouse colon cancer cell line), EMT6 (mouse breast cancer cell line), HCT116 (colorectal cancer cell line), Jurket (acute leukemia cell line), KP-4 (pancreatic cancer cell line), LL/2 (mouse lung cancer cell line), MCF7 (breast cancer cell line), […] NCI-H358 (lung cancer cell line), NCI-H727 (gastric cancer cell line), NCI-1944 (lung cancer cell line), Pan 04.03 (pancreatic cancer cell line), SK-BR-3 (breast cancer cell line), THP-1 (leukemia cell line), TOV21G (ovarian cancer cell line), U87MG (glioblastoma cell line), and UM-UC-a (bladder cancer cell line). […]
(§2) Cells were cultured according to the instructions provided by the cell supplier (Nanjing Kebai Biotechnology Co., Ltd.). […] Suspension or adherent cells were collected, and cell viability was determined using the trypan blue exclusion method, ensuring that cell viability was above 90%. […]

EMT6 = assay: CellTiter-Glo cell proliferation inhibition, EMT6; format: cell-based; conditions: EMT6 (mouse breast cancer cell line), 72 hours; read-out: Example IC50 (µM) EMT6
From the text: as §1, §2

KP-4 = assay: CellTiter-Glo cell proliferation inhibition, KP-4; format: cell-based; conditions: Homo sapiens; KP-4 (pancreatic cancer cell line), 72 hours; read-out: Example IC50 (µM) KP-4
From the text: as §1, §2

MKN45 = assay: CellTiter-Glo cell proliferation inhibition, MKN45; format: cell-based; conditions: MKN-45; MKN45 (mouse B-cell lymphoma cell line), 72 hours; read-out: Example IC50 (µM) MKN45
From the text: as §1, §2

Pan 04.03 = assay: CellTiter-Glo cell proliferation inhibition, Pan 04.03; format: cell-based; conditions: Pan 04.03 (pancreatic cancer cell line), 72 hours; read-out: Example IC50 (µM) Pan 04.03
From the text: as §1, §2

SHP2 = SHP2 (Homo sapiens, UniProt Q06124); conditions: J. Med. Chem. 2014, 57, 6594-6609; read-out: enzyme activity IC50; cited from earlier work

| IC50 (A2780) [µM] | IC50 (MKN45) [µM] | Compound | IC50 (EMT6) [µM] | IC50 (KP-4) [µM] | IC50 (Pan 04.03) [µM] | IC50 (SHP2) [nM] |
| --- | --- | --- | --- | --- | --- | --- |
| 0.128 | 0.326 | O=C(Nc1ccc(-c2csc(CO)c2)cc1)C(=O)Nc1ccc(-c2cc3cc(F)c(-c4nnn[nH]4)cc3n2C2CCC2)cc1 [Example 1] | 0.131 | 0.228 | 0.34 | – |
| – | – | Cn1c(-c2cccc(NC(=O)C(=O)Nc3ccc(-c4ccsc4)cc3)c2)c(I)c2cc(C(=O)O)c(O)cc21 [Example 11a-1, reference compound] | – | – | – | ~200 |
